Results on 14 compounds are retold here after patent US20260176289A1, “SMALL MOLECULE INHIBITORS OF KRAS PROTEINS” (Merck Sharp & Dohme LLC, priority 2022, published 2026).

Assay [1] concerns the target KRAS-G12D (Homo sapiens, UniProt P01116, G12D). Kind of assay: SOS-catalyzed nucleotide exchange assay (Procedure A, TR-FRET), KRAS-G12D. The following applies: nucleotide exchange, read-out: KRAS G12D GNE IC50. The assay is classed as biochemical. The gist of the method:
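Signal ratio (520/495 nm, excitation 340 nm) reports Bodipy-GDP retention on biotinylated RAS after SOS-catalyzed exchange with 3 mM GTP. SOS was 40 nM, except 160 nM for G12V. Room-temperature exchange lasted 60 min (90 min for G12V), following a 60 min compound preincubation.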
(TR-FRET usually uses a lanthanide donor and a delayed reading to cut background.)

In assay [2] the target is KRAS-WT (Homo sapiens, UniProt P01116). Kind of assay: SOS-catalyzed nucleotide exchange assay (Procedure A, TR-FRET), KRAS-WT. To be noted: nucleotide exchange, read-out: KRAS WT GNE IC50. The assay is classed as biochemical. Put shortly: (§1)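 Biotinylated RAS (KRAS-G12C carries C51S/C80L/C118S; others WT background) preloaded with Bodipy-GDP plus Tb-streptavidin, preincubated with compound 60 min at RT, then human SOS and 3 mM GTP added. Final RAS/SOS: G12C 3 nM/40 nM, 60 min; WT 1 nM/40 nM, 60 min; G12V 1.25 nM/160 nM, 90 min; NRAS 1.25 nM/40 nM, 60 min. TR-FRET 520/495 ratio normalized to DMSO and saturating inhibitor; 10-point curves fit four-parameter logistic.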

In assay [3] the test system is AsPC-1 cells. Description: Cellular phospho-ERK assay, AsPC-1 cells (homozygous KRAS-G12D). The following applies: Homo sapiens, read-out: AsPC1 pERK IC50. The assay is classed as cell-based. The gist of the method: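 p-ERK/total ERK ratio, measured by AlphaLISA SureFire Ultra multiplex in lysates, was fitted to a 4-parameter logistic model for IC50. Compound exposure was 2 h at 37° C, 5% CO2, 10-point 1:3 dilutions from 30 μM final, on cells plated the previous night.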

In assay [4] the target is KRAS-G12V (Homo sapiens, UniProt P01116, G12V). Description: SOS-catalyzed nucleotide exchange assay (Procedure A, TR-FRET), KRAS-G12V. The assay is classed as biochemical. To be noted: nucleotide exchange, read-out: KRAS G12V GNE IC50. Put shortly:
as §1

Where [5] appears, read: ASPC1, 2 h, 2 hours compound incubation.

Read-outs that look alike come from different tables or passages of the source.

Sequence of KRAS-WT (P01116 with tags, fused parts or gaps isoform P01116-2): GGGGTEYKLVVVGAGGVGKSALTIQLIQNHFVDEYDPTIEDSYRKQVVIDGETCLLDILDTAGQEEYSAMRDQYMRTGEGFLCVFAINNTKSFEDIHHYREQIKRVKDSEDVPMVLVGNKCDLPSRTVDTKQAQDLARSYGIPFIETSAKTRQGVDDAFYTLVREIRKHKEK
Sequence of KRAS-G12D (P01116 with tags, fused parts or gaps isoform P01116-2 G12D): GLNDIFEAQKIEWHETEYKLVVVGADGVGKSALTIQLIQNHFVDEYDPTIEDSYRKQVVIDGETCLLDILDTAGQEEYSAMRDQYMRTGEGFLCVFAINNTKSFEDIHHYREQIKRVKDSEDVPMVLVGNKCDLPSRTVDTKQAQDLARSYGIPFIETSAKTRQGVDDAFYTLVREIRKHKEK
Sequence of KRAS-G12V (P01116 with tags, fused parts or gaps isoform P01116-2 G12V): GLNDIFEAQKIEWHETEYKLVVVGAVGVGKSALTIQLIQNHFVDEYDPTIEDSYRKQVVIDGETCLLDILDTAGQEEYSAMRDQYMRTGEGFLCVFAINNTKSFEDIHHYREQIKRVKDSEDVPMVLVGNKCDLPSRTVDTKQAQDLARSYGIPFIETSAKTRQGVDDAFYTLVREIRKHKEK

As usually defined, the IC50 is the concentration at which inhibition is half-maximal. `C=CC(F)(F)c1c(C)cc2[nH]ncc2c1-c1nccc2c1sc1nc(OC[C@@]34CCCN3C[C@H](F)C4)nc(N3CCOC[C@@](C)(O)C3)c12` [Ex-152, (6S)-4-(8-(5-(1,1-difluoroallyl)-6-methyl-1H-indazol-4-yl)-2-(((2R,7aS)-2-fluorotetrahydro-1H-pyrrolizin-7a(5H)-yl)methoxy)pyrido[4′,3′:4,5]thieno[2,3-d]pyrimidin-4-yl)-6-methyl-1,4-oxazepan-6-ol]: the IC50 in assay [1] amounted to 76.9 nM; in assay [2], 195 nM; in assay [3] (setting [5]) it was 636 nM; in assay [4], 106 nM.

With `C[C@@]1(O)COCCN(c2nc(OC[C@]3(CN4C[C@H]5C[C@@H]4CO5)CC3(F)F)nc3sc4c(-c5c(C6(F)CC6)c(Cl)cc6[nH]ncc56)nccc4c23)C1` [Ex-257, (6S)-4-(2-(((R)-1-(((1R,4R)-2-oxa-5-azabicyclo[2.2.1]heptan-5-yl)methyl)-2,2-difluorocyclopropyl)methoxy)-8-(6-chloro-5-(1-fluorocyclopropyl)-1H-indazol-4-yl)pyrido[4′,3′:4,5]thieno[2,3-d]pyrimidin-4-yl)-6-methyl-1,4-oxazepan-6-ol], the IC50 in assay [1] was determined as 4.42 nM; in assay [2], 42.5 nM; in assay [3] (setting [5]), 144 nM; in assay [4], 28.7 nM.

As for `C[C@@H]1CCN1C[C@@]1(COc2nc(N3CCOC[C@@](C)(O)C3)c3c(n2)sc2c(-c4c(C5(F)CC5)c(Cl)cc5[nH]ncc45)nccc23)CC1(F)F` [Ex-261, (6S)-4-(8-(6-chloro-5-(1-fluorocyclopropyl)-1H-indazol-4-yl)-2-(((R)-2,2-difluoro-1-(((R)-2-methylazetidin-1-yl)methyl)cyclopropyl)metho-xy)pyrido[4′,3′:4,5]thieno[2,3-d]pyrimidin-4-yl)-6-methyl-1,4-oxazepan-6-ol], the concentration for half-maximal inhibition (IC50) in assay [1] was 17 nM; in assay [2], 81.6 nM; in assay [3] (setting [5]) it was 369 nM; in assay [4] it was 58.3 nM.

As for `CC1(C)C2CN(C[C@@]3(COc4nc(N5CCOC[C@@](C)(O)C5)c5c(n4)sc4c(-c6c(C7(F)CC7)c(Cl)cc7[nH]ncc67)nccc45)CC3(F)F)CC21` (stereo partly drawn) [Ex-234, (6S)-4-(8-(6-chloro-5-(1-fluorocyclopropyl)-1H-indazol-4-yl)-2-(((1R)-1-((6,6-dimethyl-3-azabicyclo[3.1.0]hexan-3-yl)methyl)-2,2-difluorocyclopropyl)methoxy)pyrido[4′,3′:4,5]thieno[2,3-d]pyrimidin-4-yl)-6-methyl-1,4-oxazepan-6-ol], the IC50 in assay [1] was found to be 27.4 nM; in assay [2], 389 nM; in assay [3] (setting [5]), 1520 nM; in assay [4], 107 nM.

Take `C#CC(F)(F)c1c(C)cc2[nH]ncc2c1-c1nccc2c1sc1nc(OC[C@@]34CCCN3C[C@H](F)C4)nc(N3CCOC[C@@](C)(O)C3)c12` [Ex-153, (6S)-4-(8-(5-(1,1-difluoroprop-2-yn-1-yl)-6-methyl-1H-indazol-4-yl)-2-(((2R,7aS)-2-fluorotetrahydro-1H-pyrrolizin-7a(5H)-yl)methoxy)pyrido[4′,3′:4,5]thieno[2,3-d]pyrimidin-4-yl)-6-methyl-1,4-oxazepan-6-ol]: the half-inhibitory concentration (IC50) in assay [1] was 123 nM; in assay [2], 322 nM; in assay [3] (ASPC1, 2 hours compound incubation) it was 1640 nM; in assay [4], 215 nM.

Consider `Cc1cc2[nH]ncc2c(-c2nccc3c2sc2nc(OC[C@@]45CCCN4C[C@H](F)C5)nc(N4CCOCC(O)(CF)C4)c23)c1C(F)(F)F` (stereo partly drawn) [Ex-202, 6-(fluoromethyl)-4-(2-(((2R,7aS)-2-fluorotetra-hydro-1H-pyrrolizin-7a(5H)-yl)methoxy)-8-(6-methyl-5-(trifluoro-methyl)-1H-indazol-4-yl)-pyrido[4′,3′:4,5]thieno [2,3-d]pyrimidin-4-yl)-1,4-oxazepan-6-ol], for which the half-maximal inhibitory concentration (IC50) is 97.5 nM in assay [1], 292 nM in assay [2], 701 nM in assay [3] (setting [5]) and 229 nM in assay [4].

For the compound `C[C@@]1(O)COCCN(c2nc(OC[C@@]34CCCN3C[C@H](F)C4)nc3sc4c(-c5cccc(Cl)c5C5CC5)nncc4c23)C1` [Ex-284], the IC50 in assay [1] was 195 nM; in assay [2], 578 nM; in assay [3] (ASPC1, 2 h, KRAS-G12D, 2 hours) it was 935 nM; in assay [4], 138 nM.

With `Cc1cccc(-c2nccc3c2sc2nc(OC[C@@]45CCCN4C[C@H](F)C5)nc(N4CCOC[C@@](C)(O)C4)c23)c1C` [Ex-120, (S)-4-(8-(2,3-dimethylpheny1)-2-(((2R,7aS)-2-fluorotetrahydro-1H-pyrrolizin-7a(5H)-yl)methoxy)pyrido[4′,3′:4,5]thi-eno[2,3-d]pyrimidin-4-yl)-6-methyl-1,4-oxazepan-6-ol], the IC50 in assay [1] stood at 403 nM; in assay [2] it was 1080 nM; in assay [3] (ASPC1, 2 h, KRAS-G12D, 2 hours), 2030 nM; in assay [4], 269 nM.

Turning to `C[C@@]1(O)COCCN(c2nc(OC[C@]3(CN4C[C@H]5CCO[C@H]5C4)CC3(F)F)nc3sc4c(-c5c(C6(F)CC6)c(Cl)cc6[nH]ncc56)nccc4c23)C1` [Ex-254, (6S)-4-(8-(6-chloro-5-(1-fluorocyclopropyl)-1H-indazol-4-yl)-2-(((R)-2,2-difluoro-1-(((3aR,6aR)-hexahydro-5H-furo[2,3-c]pyrrol-5-yl)methyl)cyclopropyl)metho-xy)pyrido[4′,3′:4,5]thieno[2,3-d]pyrimidin-4-yl)-6-methyl-1,4-oxazepan-6-ol], the IC50 in assay [1] came out at 6.96 nM; in assay [2], 59.7 nM; in assay [3] (setting [5]), 315 nM; in assay [4], 91.9 nM.

`C[C@@]1(O)COCCN(c2nc(OC[C@@]34CCCN3C[C@H](F)C4)nc3sc4c(-c5c(C6=CCC6)c(C(F)(F)F)cc6[nH]ncc56)nccc4c23)C1` [Ex-77, (6S)-4-(8-(5-(cyclobut-1-en-1-yl)-6-(trifluoromethyl)-1H-indazol-4-yl)-2-(((2R,7aS)-2-fluorotetrahydro-1H-pyrrolizin-7a(5H)-yl)methoxy)pyrido[4′,3′:4,5]thi-eno[2,3-d]pyrimidin-4-yl)-6-methyl-1,4-oxazepan-6-ol]: the 50% inhibitory concentration (IC50) worked out at 15 nM in assay [1]; 61.8 nM in assay [2]; 175 nM in assay [3] (ASPC1, 2 h, KRAS-G12D, 2 hours); 20.8 nM in assay [4].

For the compound `Cc1cc2[nH]ncc2c(-c2nccc3c2sc2nc(OC[C@@]45CCCN4C[C@H](F)C5)nc(N4CCOC[C@@](C)(O)C4)c23)c1C(C)(F)F` [Ex-41, (6S)-4-(8-(5-(1,1-difluoroethyl)-6-methyl-1H-indazol-4-yl)-2-(((2R,7aS)-2-fluorotetrahydro-1H-pyrrolizin-7a(5H)-yl)methoxy)pyrido[4′,3′:4,5]thi-eno[2,3-d]pyrimidin-4-yl)-6-methyl-1,4-oxazepan-6-ol], the concentration for half-maximal inhibition (IC50) in assay [1] was determined as 121 nM; in assay [2], 260 nM; in assay [3] (ASPC1, 2 h, KRAS-G12D, 2 hours), 635 nM; in assay [4], 166 nM.

Consider `CO[C@H]1C[C@@H](COc2nc(N3CCOC[C@@](C)(O)C3)c3c(n2)sc2c(-c4c(C5CC5)c(C(F)(F)F)cc5[nH]ncc45)nccc23)N(C)C1` [Ex-84, (6S)-4-(8-(5-cyclopropyl-6-(trifluoromethyl)-1H-indazol-4-yl)-2-(((2S,4S)-4-methoxy-1-methylpyrrolidin-2-yl)methoxy)pyrido[4′,3′:4,5]thi-eno[2,3-d]pyrimidin-4-yl)-6-methyl-1,4-oxazepan-6-ol], for which the half-inhibitory concentration (IC50) in assay [1] amounted to 670 nM; in assay [2], 1380 nM; in assay [3] (ASPC1, 2 h, KRAS-G12D, 2 hours) it was 2890 nM; in assay [4] it was 847 nM.

Turning to `C[C@@H]1CC[C@@H](COc2nc(N3CCOC[C@@](C)(O)C3)c3c(n2)sc2c(-c4c(C5CC5)c(C(F)(F)F)cc5[nH]ncc45)nccc23)N1C` [Ex-86, (6S)-4-(8-(5-cyclopropyl-6-(trifluoromethyl)-1H-indazol-4-yl)-2-(((2S,5R)-1,5-dimethylpyrrolidin-2-yl)methoxy)pyrido[4′,3′:4,5]thi-eno[2,3-d]pyrimidin-4-yl)-6-methyl-1,4-oxazepan-6-ol], the IC50 came to 14.6 nM in assay [1]; 33.8 nM in assay [2]; 361 nM in assay [3] (ASPC1, 2 h, KRAS-G12D, 2 hours); 21.2 nM in assay [4].

In the case of `Cc1cc2[nH]ncc2c(-c2nccc3c2sc2nc(O[C@@H](C)[C@@H]4CCCN4C)nc(N4CCOC[C@@](C)(O)C4)c23)c1C(F)(F)F` [Ex-204, (6S)-6-methyl-4-(8-(6-methyl-5-(trifluoromethyl)-1H-indazol-4-yl)-2-((S)-1-((S)-1-methylpyrrolidin-2-yl)ethoxy)pyrido[4′,3′:4,5]thieno[2,3-d]pyrimidin-4-yl)-1,4-oxazepan-6-ol], the half-inhibitory concentration (IC50) came out at 339 nM in assay [1], 936 nM in assay [2], 2310 nM in assay [3] (setting [5]) and 239 nM in assay [4].
